Measurements published in the NIST ThermoML archive (doi:10.1021/je200883w).

Details: 101.33 kPa, Liquid; for viscosity: Concentric cylinders viscometry; for mass density: Vibrating tube method

CCOS(=O)(=O)[O-].CCn1cc[n+](C)c1 [1-ethyl-3-methylimidazolium ethyl sulfate]
Details	mass density [kg/m3]	viscosity [mPa·s]
253.15 K	1270.6	3146.4
258.15 K	1266.9	1789.6
263.15 K	1263.3	1094.4
268.15 K	1259.5	700.85
273.15 K	1255.7	466.03
278.15 K	1252	321.37
283.15 K	1248.3	229.15
288.15 K	1244.8	168.31
293.15 K	1241.3	126.89
298.15 K	1237.8	97.84
303.15 K	1234.4	77.01
308.15 K	1231	61.71
313.15 K	1227.6	50.25
318.15 K	1224.2	41.51
323.15 K	1220.8	34.73
328.15 K	1217.4	29.4
333.15 K	1214	25.15
338.15 K	1210.6	21.72
343.15 K	1207.2	18.91
348.15 K	1203.8	16.6
353.15 K	1200.4	14.68
358.15 K	1197.2	13.06
363.15 K	1194.1	11.69
368.15 K	1191.1	10.52
373.15 K	1188.2	9.518

CCCC[N+]1(C)CCCC1.O=S(=O)([O-])C(F)(F)F [1-butyl-1-methylpyrrolidinium trifluoromethanesulfonate]
Details	mass density [kg/m3]	viscosity [mPa·s]
283.15 K	1263.6	414.9
288.15 K	1259.9	299.4
293.15 K	1256.1	221.7
298.15 K	1252.4	167.87
303.15 K	1248.7	129.71
308.15 K	1245.1	102.06
313.15 K	1241.5	81.62
318.15 K	1238	66.24
323.15 K	1234.4	54.48
328.15 K	1230.8	45.34
333.15 K	1227.3	38.16
338.15 K	1223.8	32.45
343.15 K	1220.3	27.84
348.15 K	1216.8	24.08
353.15 K	1213.3	21
358.15 K	1209.7	18.44
363.15 K	1205.9	16.29
368.15 K	1202.5	14.48
373.15 K	1199.2	12.95

CCCC[N+]1(C)CCCC1.O=S(=O)([N-]S(=O)(=O)C(F)(F)F)C(F)(F)F
Details	mass density [kg/m3]	viscosity [mPa·s]
278.15 K	1412.9	230.3
283.15 K	1408.3	169.6
288.15 K	1403.8	128
293.15 K	1399.3	98.74
298.15 K	1394.9	77.65
303.15 K	1390.5	62.14
308.15 K	1386.1	50.52
313.15 K	1381.8	41.65
318.15 K	1377.4	34.78
323.15 K	1373	29.38
328.15 K	1368.7	25.07
333.15 K	1364.3	21.6
338.15 K	1360	18.77
343.15 K	1355.7	16.44
348.15 K	1351.4	14.5
353.15 K	1346.9	12.87
358.15 K	1342.5	11.5
363.15 K	1338.3	10.33
368.15 K	1334.3	9.32
373.15 K	1330.3	8.454

COCC[N+]1(C)CCCC1.O=S(=O)([N-]S(=O)(=O)C(F)(F)F)C(F)(F)F
Details	mass density [kg/m3]	viscosity [mPa·s]
258.15 K	1494.1	620.3
263.15 K	1488.7	412.3
268.15 K	1483.6	286.4
273.15 K	1478.5	204.56
278.15 K	1473.7	149.89
283.15 K	1468.8	112.96
288.15 K	1464	87.14
293.15 K	1459.3	68.61
298.15 K	1454.7	55.06
303.15 K	1450	44.9
308.15 K	1445.2	37.15
313.15 K	1440.5	31.15
318.15 K	1435.9	26.43
323.15 K	1431.2	22.66
328.15 K	1426.6	19.59
333.15 K	1422	17.09
338.15 K	1417.4	15.03
343.15 K	1412.9	13.32
348.15 K	1408.2	11.88
353.15 K	1403.3	10.66
358.15 K	1398.6	9.617
363.15 K	1394.2	8.718
368.15 K	1389.9	7.94
373.15 K	1385.7	7.263
